Assays:
[1] = HPLC analysis of encapsulated Olaparib (loading efficiency); assay type: physicochemical; conditions: across the batches
Experimental: HPLC analysis: The concentration of Olaparib encapsulated was determined using HPLC. The mobile phase was optimized to be methanol: water (64:36) run on a reverse phase C18 column (SUPELCO™), and the Olaparib was detected at 207 nm. All the doses used in the following studies were derived from the standard curve obtained using a working range of serially diluted Olaparib solutions in mobile phases as described above. The loading efficiency across the batches was around 80-90%.

FKO1 = experiment: Delayed viability assay after radiosensitization (modified clonogenic assay); assay type: cell-based, mouse
Experimental: (§1) In vitro characterization of NanoOlaparib: For in vitro studies we used PTEN deficient human prostate cancer cell lines PC3 (ATCC), LNCaP (ATCC) and mouse cell line FKO1. […] Briefly, a complete media was formulated by adding 10% Fetal Bovine Serum from HyClone (FBS) to F12-k (PC3), RPMI (LNCaP) and DMEM supplemented with growth factors such as Bovine Pituitary Extract, (Life Technologies cat #: 13028014), final conc. 25ug/ml, Insulin, (Sigma Aldrich Cat#:16634-50 mg), final conc. 5ug/ml, EGF (Life Technologies Cat#:PHG0311), final conc 6 ng/ml (FKO1). The FKO1 cells were grown on collagen-coated plates (VWR Cat#: 47743-656). CellTiter-Glo® luminescent cell viability reagent was ordered from Promega, CA Cat # G7570. Clonogenic assay kit was bought from BioPioneer, CA, Cat # CODE: CA-001.
(§2) Irradiation for in vitro studies: Radiation was delivered using the Small Animal Radiation Research Platform (SARRP) at DFCI, a gantry mounted x-ray tube and flat panel imager capable of fixed field irradiation, rotation therapy and cone-beam CT (CBCT) imaging. […] Here the radiation doses were optimized to 2 Gy (5.6 Gy/min for 22 sec) and 4 Gy (5.5 Gy/min for 44 sec) to irradiate the cells, which were pretreated with Olaparib/NanoOlaparib for 24 hrs.
(§3) Delayed viability assay after radiosensitization: Based on several studies, we modified the general clonogenic assay protocol to determine the long term effects of radio-sensitization with olaparib and NanoOlaparib (42, 43). The percent cell viability was determined using the modified clonogenic assay at 2 Gy and 4 Gy doses. Irradiation was carried out in prostate cancer cell lines, LNCaP PC3 and FKO1 as described above. […] The cell density was determined using automated cell counter and 10,000 and 20,000 cells from each treatment group was calculated and seeded in fresh 6 well plates. […] The stain was then dissolved in acetic acid to quantify the effect of Olaparib and NanoOlaparib treatments for all the cell lines.

PC3 [2] = experiment: Synergism with irradiation, combination index by CalcuSyn; assay type: cell-based, human; conditions: PC3, 20 μM with irradiation
Experimental: Determination of Synergism using CalcuSyn: The fraction of cells affected (Fa) in response to Olaparib and Nanoolaparib treatment was determined as discussed in above sections. The fraction of cells affected by irradiation alone and the combination therapy was determined by the delayed cell viability assay and these values were utilized to perform synergyism analysis. A non-constant ratio combination design as formulated by CalcuSyn (Biosoft) based on the Chou-Talalay isobologram equation was used to calculate the Combination index (44). All the cells were exposed to 20 μM Olaparib or NanoOlaparib with increasing doses of Irradiation. The CI values were generated from isobolograms. All assays were performed in duplicates. Bars represent the Combination index (CI) of Olaparib and Nanoolaparib on LNCaP, PC3 and FKO1 in combinations with irradiation. The CI values generated for all the treatment groups are reported in the bar graphs are derived from duplicate experiments. The extent of synergism is postulated as indicated by the Chou-Talalay method.

FKO1 cells = experiment: Nuclear PARP cleavage assay by confocal microscopy; assay type: cell-based, mouse; conditions: FKO1, DAPI
Source text: as §2
Nuclear localization and early DNA damage determination: To assess the early DNA Damage and PARP inhibition pathway damage, including PARP, PARylation, PARP cleavage and yH2AX in the cell lines to various treatment conditions, the prostate cancer cell lines were seeded at 100,000 cells, exposed to 20 μM Olaparib/NanoOlaparib, with and without radiation for both immunoflorescence (confocal) and western blotting assays. […] The nuclear localization and extent of apoptosis was determined using nuclear PARP cleavage assay and western blotting was used to determine the relative cellular concentrations of PARP, PAR, and yH2AX for various treatments on all the cell lines. […]
Nuclear PARP Cleavage assay using confocal microscopy: The cells were fixed with 1% formalin and kept at 37° C. for 15 min. […] Statistical significance was analyzed using two way ANOVA and Dunnet's multiple comparison tests in Graph Pad Prism.

LNCaP cells = experiment: Nuclear PARP cleavage assay by confocal microscopy; assay type: cell-based, human
Source text: as §2
(§4) Nuclear localization and early DNA damage determination: To assess the early DNA Damage and PARP inhibition pathway damage, including PARP, PARylation, PARP cleavage and yH2AX in the cell lines to various treatment conditions, the prostate cancer cell lines were seeded at 100,000 cells, exposed to 20 μM Olaparib/NanoOlaparib, with and without radiation for both immunoflorescence (confocal) and western blotting assays. PARP-1 is a 116 kDa nuclear protein which is strongly activated by DNA strand breaks. During apoptosis, proteins such as caspase-3 and -7, cleave the PARP to yield an 85 kDa and a 25 kDa fragment. The nuclear localization and extent of apoptosis was determined using nuclear PARP cleavage assay and western blotting was used to determine the relative cellular concentrations of PARP, PAR, and yH2AX for various treatments on all the cell lines. Briefly, 105 cells/well were seeded in a 6 well plate on sterile coverslips for 24 hours before adding the drugs. The cells were incubated with the drugs for either 4 hr s after which they were irradiated. The cells thus treated were incubated at 37° C. for 1 hour before fixing them for further analysis.
(§5) Nuclear PARP Cleavage assay using confocal microscopy: The cells were fixed with 1% formalin and kept at 37° C. for 15 min. The coverslips were given three PBS washings (3 min each) until the cells were free of fixing agent. The cells were rehydrated using PBS with 0.5% tween 80 for 30 min, washed with buffer and incubated with Anti-PARP Cleavage Site (214/215) specific antibody, FITC Conjugate (Life technologies, NY, Cat #44-699) for 1 hour. This antibody specifically recognizes the 85 kDa fragment of cleaved PARP and can be used as a marker for detecting apoptotic cells. The coverslips were washed twice and were mounted onto the glass slide using and the edges were sealed using nail polish. The images were taken using an Olympus FV1000, multi-photon confocal microscope (Olympus America, Inc., Central Valley, Calif.). The excitation filters used for imaging cleaved PARP (FITC) and DAPI were Ex-488, 405 respectively. The emission filters were set at 530, 458 nm for FITC and DAPI respectively. All the images were captured with a 60× objective. […] Statistical significance was analyzed using two way ANOVA and Dunnet's multiple comparison tests in Graph Pad Prism.

PC3 cells = experiment: Nuclear PARP cleavage assay by confocal microscopy; assay type: cell-based, human; conditions: PC3, DAPI
Source text: as §2, §4, §5

PC3 [3] = experiment: Delayed viability assay after radiosensitization (modified clonogenic assay); assay type: cell-based, human
Experimental: as §1, with “Clonogenic assay kit was bought from BioPioneer, CA, Cat # CODE: CA-001.” left out
as §3, with “doses.” for “doses. Irradiation was carried out in prostate cancer cell lines, LNCaP PC3 and FKO1 as described above.”

- loading efficiency [1]: 80-90%
SMILES: O=C(c1cc(Cc2n[nH]c(=O)c3ccccc23)ccc1F)N1CCN(C(=O)C2CC2)CC1 [Olaparib, 4-(3-(1-(cyclopropanecarbonyl)piperazine-4-carbonyl)-4-fluorobenzyl)phthalazin-1(2H)-one]
- cell kill (FKO1; FKO1, 20 uM combined with 4 Gy radiation): 82%
- cell death (FKO1; FKO1, 20 uM with 2 Gy): 68%
- cell death, monotherapy (FKO1; FKO1, 20 uM, no irradiation): 53%
- combinatorial effect of drug and irradiation (CI) (PC3 [2]): additive effect
- change in nuclear size (FKO1 cells): No significant change
- location of cleaved PARP (LNCaP cells; 1 hr post irradiation): predominantly found in the perinuclear region
- increase in nuclear area (LNCaP cells; DAPI, 20 μM): 3 fold
- increase in cleaved PARP upon monotherapy (LNCaP cells; no irradiation, 20 μM): 20 fold
- change in nuclear size (PC3 cells): No significant change
- cell death (PC3 [3]; PC3, 20 uM with 2 Gy): 80%
- cell death, monotherapy (PC3 [3]; PC3, 20 uM, no irradiation): 78%

Source: patent publication US10111871B2, “Nanoparticle drug delivery system and method of treating cancer and neurotrauma” (Northeastern University, priority 2013, dated 2018)
